Assay results: ChEMBL document CHEMBL3779783, “Short cationic lipopeptides as effective antibacterial agents: Design, physicochemical properties and biological evaluation” (Bioorg Med Chem, 2016)
In brackets after ≈: the same amount, converted by molar mass. Starred links: 1 amine or outer side, 2 acyl side, 3 side chain; linkers in the order of their positions; H or OH if unused. Positions of bridges follow the written chain, without caps; N, C: chain ends. Non-standard residues stand in square brackets, D forms with d. Residues, ends and D or L forms follow the SMILES beside them. Groups on a side chain read outwards from the residue. ξ: configuration not given here. ξGly(decyl) = CCCCCCCCCCC(N)C(=O)O; Suc = O=C(CCC(=O)[*:2])[*:1]

What was measured:
Klebsiella pneumoniae [1] = assay: Antimicrobial activity against multidrug resistant Klebsiella pneumoniae ATCC 700603 after 20 hrs by microdilution assay; assay type: functional
Enterococcus faecium [2] = assay: Antimicrobial activity against multidrug resistant and high level vancomycin resistant Enterococcus faecium ATCC 51559 after 20 hrs by microdilution assay; assay type: functional; details: ATCC 51559, 20 h
Pseudomonas aeruginosa [3] = assay: Antimicrobial activity against Pseudomonas aeruginosa ATCC 27853 after 20 hrs by microdilution assay; assay type: functional
Acinetobacter baumannii [4] = assay: Antimicrobial activity against Acinetobacter baumannii […] after 20 hrs by microdilution assay; assay type: functional
[5] = Cytotoxicity against human HepG2 cells after 24 hrs by MTT assay; assay type: cell-based
Escherichia coli [6] = assay: Antimicrobial activity against Escherichia coli ATCC 25922 after 20 hrs by microdilution assay; assay type: functional
Staphylococcus aureus [7] = assay: Antimicrobial activity against clinical isolates of methicillin-resistant Staphylococcus aureus after 20 hrs by microdilution assay; assay type: functional
Staphylococcus aureus [8] = assay: Antimicrobial activity against vancomycin-resistant Staphylococcus aureus NARSA VRS4 after 20 hrs by microdilution assay; assay type: functional; details: NARSA VRS4, 20 h
Klebsiella pneumoniae [9] = assay: Antimicrobial activity against Klebsiella pneumoniae ATCC 13883 after 20 hrs by microdilution assay; assay type: functional
Staphylococcus aureus [10] = assay: Antimicrobial activity against glycopeptide-intermediate Staphylococcus aureus NRS17 after 20 hrs by microdilution assay; assay type: functional; details: NRS17, 20 h
Staphylococcus aureus [11] = assay: Antimicrobial activity against clinical isolates of multi-resistant/methicillin-resistant Staphylococcus aureus after 20 hrs by microdilution assay; assay type: functional
Staphylococcus aureus [12] = assay: Antimicrobial activity against glycopeptide-intermediate Staphylococcus aureus NRS1 after 20 hrs by microdilution assay; assay type: functional; details: NRS1, 20 h
Staphylococcus aureus [13] = assay: Antimicrobial activity against vancomycin-resistant Staphylococcus aureus NARSA VRS10 after 20 hrs by microdilution assay; assay type: functional; details: NARSA VRS10, 20 h
Staphylococcus aureus [14] = assay: Antimicrobial activity against methicillin-resistant Staphylococcus aureus ATCC 43300 after 20 hrs by microdilution assay; assay type: functional; details: ATCC 43300, 20 h
Staphylococcus aureus [15] = assay: Antimicrobial activity against methicillin-susceptible Staphylococcus aureus ATCC 25923 after 20 hrs by microdilution assay; assay type: functional; details: ATCC 25923, 20 h
Klebsiella pneumoniae [16] = assay: Antimicrobial activity against NDM-1 positive Klebsiella pneumoniae BAA-2146 after 20 hrs by microdilution assay; assay type: functional
[17] = Cytotoxicity against HEK293 cells after 24 hrs by MTT assay; assay type: cell-based; details: human
Staphylococcus aureus [18] = assay: Antimicrobial activity against vancomycin-resistant Staphylococcus aureus NARSA VRS1 after 20 hrs by microdilution assay; assay type: functional; details: NARSA VRS1, 20 h
Enterococcus faecalis [19] = assay: Antimicrobial activity against clinical isolates of high level vancomycin-resistant Enterococcus faecalis after 20 hrs by microdilution assay; assay type: functional
Streptococcus pneumoniae [20] = assay: Antimicrobial activity against multidrug resistant Streptococcus pneumoniae ATCC 700677 after 20 hrs by microdilution assay; assay type: functional; details: ATCC 700677, 20 h
Staphylococcus aureus [21] = assay: Antimicrobial activity against clinical isolates of multi-resistant/methicillin-resistant Staphylococcus aureus after 24 hrs by M7-A7 method; assay type: functional
Enterococcus faecalis [22] = assay: Antimicrobial activity against clinical isolates of high level vancomycin-resistant Enterococcus faecalis after 24 hrs by M7-A7 method; assay type: functional
Staphylococcus aureus [23] = assay: Antimicrobial activity against vancomycin-resistant Staphylococcus aureus NARSA VRS4 after 24 hrs by M7-A7 method; assay type: functional; details: NARSA VRS4, 24 h
Streptococcus pneumoniae [24] = assay: Antimicrobial activity against multidrug resistant Streptococcus pneumoniae ATCC 700677 after 24 hrs by M7-A7 method; assay type: functional; details: ATCC 700677, 24 h
Enterococcus faecium [25] = assay: Antimicrobial activity against multidrug resistant and high level vancomycin resistant Enterococcus faecium ATCC 51559 after 24 hrs by M7-A7 method; assay type: functional; details: ATCC 51559, 24 h
Staphylococcus aureus [26] = assay: Antimicrobial activity against methicillin-susceptible Staphylococcus aureus ATCC 25923 after 24 hrs by M7-A7 method; assay type: functional; details: ATCC 25923, 24 h
Staphylococcus aureus [27] = assay: Antimicrobial activity against clinical isolates of methicillin-resistant Staphylococcus aureus after 24 hrs by M7-A7 method; assay type: functional
Acinetobacter baumannii [28] = assay: Antimicrobial activity against Acinetobacter baumannii […] after 24 hrs by M7-A7 method; assay type: functional
Staphylococcus aureus [29] = assay: Antimicrobial activity against vancomycin-resistant Staphylococcus aureus NARSA VRS10 after 24 hrs by M7-A7 method; assay type: functional; details: NARSA VRS10, 24 h
Staphylococcus aureus [30] = assay: Antimicrobial activity against vancomycin-resistant Staphylococcus aureus NARSA VRS1 after 24 hrs by M7-A7 method; assay type: functional; details: NARSA VRS1, 24 h
Klebsiella pneumoniae [31] = assay: Antimicrobial activity against NDM-1 positive Klebsiella pneumoniae BAA-2146 after 24 hrs by M7-A7 method; assay type: functional; details: ATCC BAA-2146, 24 h
Staphylococcus aureus [32] = assay: Antimicrobial activity against methicillin-resistant Staphylococcus aureus ATCC 43300 after 24 hrs by M7-A7 method; assay type: functional; details: ATCC 43300, 24 h
Staphylococcus aureus [33] = assay: Antimicrobial activity against glycopeptide-intermediate Staphylococcus aureus NRS1 after 24 hrs by M7-A7 method; assay type: functional; details: NRS1, 24 h
Klebsiella pneumoniae [34] = assay: Antimicrobial activity against multidrug resistant Klebsiella pneumoniae ATCC 700603 after 24 hrs by M7-A7 method; assay type: functional; details: Klebsiella pneumoniae, 700603, 24 h
Staphylococcus aureus [35] = assay: Antimicrobial activity against glycopeptide-intermediate Staphylococcus aureus NRS17 after 24 hrs by M7-A7 method; assay type: functional; details: NRS17, 24 h
Escherichia coli [36] = assay: Antimicrobial activity against Escherichia coli ATCC 25922 after 24 hrs by M7-A7 method; assay type: functional; details: ATCC 25922, 24 h
Pseudomonas aeruginosa [37] = assay: Antimicrobial activity against Pseudomonas aeruginosa ATCC 27853 after 24 hrs by M7-A7 method; assay type: functional; details: ATCC 27853, 24 h
Klebsiella pneumoniae [38] = assay: Antimicrobial activity against Klebsiella pneumoniae ATCC 13883 after 24 hrs by M7-A7 method; assay type: functional; details: ATCC 13883, 24 h
[39] = Klebsiella pneumoniae, 700603, 20 h

CCCCCCCCCCC(NC(=O)C(CCCCN)NC(C)=O)C(N)=O (centres undefined)
MIC (Klebsiella pneumoniae [1]; [39]): > 30 µM | MIC (Enterococcus faecium [2]): > 30 µM | MIC (Pseudomonas aeruginosa [3]; ATCC 27853, 20 h): > 30 µM | MIC (Acinetobacter baumannii [4]): > 30 µM | CC50 at 24 h [5]: > 15 µM | MIC (Escherichia coli [6]; ATCC 25922, 20 h): > 30 µM | MIC (Staphylococcus aureus [7]): > 30 µM | MIC (Staphylococcus aureus [8]): > 30 µM | MIC (Klebsiella pneumoniae [9]; ATCC 13883, 20 h): > 30 µM | MIC (Staphylococcus aureus [10]): > 30 µM | MIC (Staphylococcus aureus [11]): > 30 µM | MIC (Staphylococcus aureus [12]): > 30 µM | MIC (Staphylococcus aureus [13]): > 30 µM | MIC (Staphylococcus aureus [14]): > 30 µM | MIC (Staphylococcus aureus [15]): > 30 µM | MIC (Klebsiella pneumoniae [16]; ATCC BAA-2146, 20 h): > 30 µM | CC50 at 24 h [17]: > 15 µM | MIC (Staphylococcus aureus [18]): > 30 µM | MIC (Enterococcus faecalis [19]): 30 µM (≈ 11.5 µg/mL) | MIC (Streptococcus pneumoniae [20]): > 30 µM

COLISTIN
MIC (Klebsiella pneumoniae [1]): 0.04 µM | MIC (Pseudomonas aeruginosa [3]): 0.09 µM | MIC (Acinetobacter baumannii [4]): 0.04 µM | MIC (Escherichia coli [6]): 0.02 µM | MIC (Klebsiella pneumoniae [9]): 0.04 µM | MIC (Klebsiella pneumoniae [16]; ATCC BAA-2146): 0.04 µM

CCCCCCCCCCC(NC(=O)C(CCCCCCCCCC)NC(=O)C(CCCCNC(=O)C(CCCCN)NC(C)=O)NC(=O)C(CCCCN)NC(C)=O)C(N)=O (centres undefined) (Ac-KK([Lys-Ac])[ξGly(decyl)][ξGly(decyl)]-NH2; configuration not given here)
MIC (Klebsiella pneumoniae [1]; [39]): > 30 µM | MIC (Enterococcus faecium [2]): 0.9 µM (≈ 0.792 µg/mL) | MIC (Pseudomonas aeruginosa [3]; ATCC 27853, 20 h): 30 µM (≈ 26.4 µg/mL) | MIC (Acinetobacter baumannii [4]): 30 µM (≈ 26.4 µg/mL) | CC50 at 24 h [5]: > 15 µM | MIC (Escherichia coli [6]; ATCC 25922, 20 h): > 30 µM | MIC (Staphylococcus aureus [7]): 5.6 µM (≈ 4.93 µg/mL) | MIC (Staphylococcus aureus [8]): 2.8 µM (≈ 2.46 µg/mL) | MIC (Klebsiella pneumoniae [9]; ATCC 13883, 20 h): > 30 µM | MIC (Staphylococcus aureus [10]): 7.5 µM (≈ 6.6 µg/mL) | MIC (Staphylococcus aureus [11]): 2.8 µM (≈ 2.46 µg/mL) | MIC (Staphylococcus aureus [12]): 7.5 µM (≈ 6.6 µg/mL) | MIC (Staphylococcus aureus [13]): 1.9 µM (≈ 1.67 µg/mL) | MIC (Staphylococcus aureus [14]): 0.9 µM (≈ 0.792 µg/mL) | MIC (Staphylococcus aureus [15]): 3.75 µM (≈ 3.3 µg/mL) | MIC (Klebsiella pneumoniae [16]; ATCC BAA-2146, 20 h): > 30 µM | CC50 at 24 h [17]: > 15 µM | MIC (Staphylococcus aureus [18]): 1.9 µM (≈ 1.67 µg/mL) | MIC (Enterococcus faecalis [19]): 0.9 µM (≈ 0.792 µg/mL) | MIC (Streptococcus pneumoniae [20]): 2.8 µM (≈ 2.46 µg/mL)

CCCCCCCCCCC1NC(=O)C(CCCCCCCCCC)NC(=O)C(CCCCN)NC(=O)C(CCCCN)NC(=O)CCC(=O)NCCCCC(C(=O)NCC(N)=O)NC1=O (centres undefined) (KK[ξGly(decyl)][ξGly(decyl)]KG-NH2; linker N-5 via Suc; configuration not given here)
MIC (Staphylococcus aureus [21]): 1.9 µM (≈ 1.78 µg/mL) | MIC (Enterococcus faecalis [22]): 0.2 µM (≈ 0.187 µg/mL) | MIC (Staphylococcus aureus [23]): 0.5 µM (≈ 0.468 µg/mL) | MIC (Streptococcus pneumoniae [24]): 0.9 µM (≈ 0.842 µg/mL) | MIC (Enterococcus faecium [25]): 0.3 µM (≈ 0.281 µg/mL) | MIC (Staphylococcus aureus [26]): 0.5 µM (≈ 0.468 µg/mL) | MIC (Staphylococcus aureus [27]): 1.4 µM (≈ 1.31 µg/mL) | MIC (Acinetobacter baumannii [28]): 15 µM (≈ 14 µg/mL) | MIC (Staphylococcus aureus [29]): 0.9 µM (≈ 0.842 µg/mL) | MIC (Staphylococcus aureus [30]): 0.7 µM (≈ 0.655 µg/mL) | MIC (Klebsiella pneumoniae [31]): > 30 µM | MIC (Staphylococcus aureus [32]): 0.5 µM (≈ 0.468 µg/mL) | MIC (Staphylococcus aureus [33]): 1.2 µM (≈ 1.12 µg/mL) | MIC (Klebsiella pneumoniae [34]): > 30 µM | MIC (Staphylococcus aureus [35]): 0.9 µM (≈ 0.842 µg/mL) | MIC (Escherichia coli [36]): ≥ 30 µM | MIC (Pseudomonas aeruginosa [37]): 30 µM (≈ 28.1 µg/mL) | MIC (Klebsiella pneumoniae [38]): > 30 µM
